What all share (format): cell-based
The subject of one test is COLO205 (colon). Kind of test: Inhibition of cell proliferation, CellTiter-Glo, COLO205. The note with it: Homo sapiens, COLO 205, 72 h. Here is the method:
C. Inhibition of Cell Proliferation
Cell proliferation was measured by either CellTiter-Glo (measures cellular ATP level as a surrogate for total cell number) or by InCell analyzer (counts number of nuclei as a measure of cell number). For CellTiter-Glo assay, exponentially growing cell lines of different tumor origins, cultured in appropriate media containing 10% fetal bovine serum at 37° C. in a 5% CO2 incubator, were plated at low density (less than 2000 cells/well) in 96-well plates. […] Several wells were left untreated as a control. Seventy two hours post-treatment, cell numbers were determined using 50-100 ul per well of CellTiter-Glo (Promega #G7573). Plates were incubated at 37° C. for 30 minutes and the chemiluminescent signal was read on the Victor V or Envison 2100 reader. […]

The target of test [1] is T1, human IGF-1R (NIH-3T3 cells over expressing human IGF-1R) (Homo sapiens, UniProt P08069).
T1 construct: expressed in transfected cells; host or cells: NIH-3T3 (mouse fibroblasts)
Kind of test: IGF-1R cellular autophosphorylation (DELFIA). The note with it: IGF-1 stimulated. Here is the method:
(§1) D. IGF-1R and IR Cellular Autophosphorylation (DELFIA)
(§2) NIH-3T3 cells over expressing human IGF-1R or IR were plated in 96-well plates (10,000 cells/well) in culture media containing 10% fetal bovine serum and incubated at 37° C. in a 5% CO2 incubator. Twenty four hours post-plating, cells were treated with different concentrations of test compounds ranging from 30 uM to 1.5 nM. Two hours after compound addition, cells were stimulated with either human IGF-1 (30 ng/mL) or insulin (3 ug/mL) for 15 minutes. Cell lysates are analyzed for phosphorylated receptors using dissociation enhanced lanthanide fluor-immuno assay (DELFIA) with anti-IGF-1R (MAB391, R&D Systems, Minneapolis, Minn.) or anti-IR[…](sc-711, Santa Cruz Biotechnology, Santa Cruz, Calif.) capture antibody and europium-labeled anti-pTyr antibody (Eu-N1 PT66, Perkin Elmer, Waltham, Mass.) for detection. The fluorescence signal for cells treated with compounds was expressed as percent relative to 100% stimulation (IGF-1 or insulin stimulated signal). […]

For test [2], the target named is T2, IR (NIH-3T3 cells over expressing human IGF-1R or IR) (Homo sapiens, UniProt P06213).
T2 construct: expressed in transfected cells; host or cells: NIH-3T3 (mouse fibroblasts)
Kind of test: IR cellular autophosphorylation (DELFIA). The conditions noted are these: NIH-3T3 cells over expressing IR, insulin stimulated. Here is the method:
as §1, §2

T1 sequence (P08069 31-1367): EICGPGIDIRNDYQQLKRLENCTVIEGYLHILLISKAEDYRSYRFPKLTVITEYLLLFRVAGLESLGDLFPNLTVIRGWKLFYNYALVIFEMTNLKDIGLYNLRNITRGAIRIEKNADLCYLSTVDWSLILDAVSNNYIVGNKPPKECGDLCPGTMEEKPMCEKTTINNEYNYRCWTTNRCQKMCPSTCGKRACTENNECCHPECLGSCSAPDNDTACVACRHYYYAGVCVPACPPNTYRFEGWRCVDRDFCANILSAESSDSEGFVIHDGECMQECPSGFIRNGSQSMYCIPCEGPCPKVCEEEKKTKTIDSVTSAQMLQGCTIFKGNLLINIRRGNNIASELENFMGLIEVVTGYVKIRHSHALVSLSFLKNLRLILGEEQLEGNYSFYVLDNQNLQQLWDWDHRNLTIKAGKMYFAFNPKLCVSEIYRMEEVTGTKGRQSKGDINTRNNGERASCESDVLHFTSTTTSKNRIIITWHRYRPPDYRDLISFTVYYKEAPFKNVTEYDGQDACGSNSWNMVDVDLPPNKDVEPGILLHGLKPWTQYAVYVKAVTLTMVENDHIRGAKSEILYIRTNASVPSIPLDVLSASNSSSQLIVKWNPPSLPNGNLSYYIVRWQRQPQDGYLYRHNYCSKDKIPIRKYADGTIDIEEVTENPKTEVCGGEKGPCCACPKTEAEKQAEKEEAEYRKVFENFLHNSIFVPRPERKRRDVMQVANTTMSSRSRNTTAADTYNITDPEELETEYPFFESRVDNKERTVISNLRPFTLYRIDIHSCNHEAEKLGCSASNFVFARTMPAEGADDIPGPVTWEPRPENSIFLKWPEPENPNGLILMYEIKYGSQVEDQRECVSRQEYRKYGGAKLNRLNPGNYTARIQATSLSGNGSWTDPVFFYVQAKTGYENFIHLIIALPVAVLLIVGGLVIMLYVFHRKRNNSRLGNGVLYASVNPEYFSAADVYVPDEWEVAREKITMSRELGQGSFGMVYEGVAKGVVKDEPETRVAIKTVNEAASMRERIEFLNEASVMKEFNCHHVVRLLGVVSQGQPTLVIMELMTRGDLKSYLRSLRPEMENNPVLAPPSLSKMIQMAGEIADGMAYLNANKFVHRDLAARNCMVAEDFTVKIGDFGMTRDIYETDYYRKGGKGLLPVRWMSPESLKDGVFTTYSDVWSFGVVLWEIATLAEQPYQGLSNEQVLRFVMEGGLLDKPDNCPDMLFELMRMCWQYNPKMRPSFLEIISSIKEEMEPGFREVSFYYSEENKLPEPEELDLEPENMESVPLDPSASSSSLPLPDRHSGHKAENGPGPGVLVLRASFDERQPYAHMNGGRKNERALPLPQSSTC
T2 sequence (P06213 28-1382): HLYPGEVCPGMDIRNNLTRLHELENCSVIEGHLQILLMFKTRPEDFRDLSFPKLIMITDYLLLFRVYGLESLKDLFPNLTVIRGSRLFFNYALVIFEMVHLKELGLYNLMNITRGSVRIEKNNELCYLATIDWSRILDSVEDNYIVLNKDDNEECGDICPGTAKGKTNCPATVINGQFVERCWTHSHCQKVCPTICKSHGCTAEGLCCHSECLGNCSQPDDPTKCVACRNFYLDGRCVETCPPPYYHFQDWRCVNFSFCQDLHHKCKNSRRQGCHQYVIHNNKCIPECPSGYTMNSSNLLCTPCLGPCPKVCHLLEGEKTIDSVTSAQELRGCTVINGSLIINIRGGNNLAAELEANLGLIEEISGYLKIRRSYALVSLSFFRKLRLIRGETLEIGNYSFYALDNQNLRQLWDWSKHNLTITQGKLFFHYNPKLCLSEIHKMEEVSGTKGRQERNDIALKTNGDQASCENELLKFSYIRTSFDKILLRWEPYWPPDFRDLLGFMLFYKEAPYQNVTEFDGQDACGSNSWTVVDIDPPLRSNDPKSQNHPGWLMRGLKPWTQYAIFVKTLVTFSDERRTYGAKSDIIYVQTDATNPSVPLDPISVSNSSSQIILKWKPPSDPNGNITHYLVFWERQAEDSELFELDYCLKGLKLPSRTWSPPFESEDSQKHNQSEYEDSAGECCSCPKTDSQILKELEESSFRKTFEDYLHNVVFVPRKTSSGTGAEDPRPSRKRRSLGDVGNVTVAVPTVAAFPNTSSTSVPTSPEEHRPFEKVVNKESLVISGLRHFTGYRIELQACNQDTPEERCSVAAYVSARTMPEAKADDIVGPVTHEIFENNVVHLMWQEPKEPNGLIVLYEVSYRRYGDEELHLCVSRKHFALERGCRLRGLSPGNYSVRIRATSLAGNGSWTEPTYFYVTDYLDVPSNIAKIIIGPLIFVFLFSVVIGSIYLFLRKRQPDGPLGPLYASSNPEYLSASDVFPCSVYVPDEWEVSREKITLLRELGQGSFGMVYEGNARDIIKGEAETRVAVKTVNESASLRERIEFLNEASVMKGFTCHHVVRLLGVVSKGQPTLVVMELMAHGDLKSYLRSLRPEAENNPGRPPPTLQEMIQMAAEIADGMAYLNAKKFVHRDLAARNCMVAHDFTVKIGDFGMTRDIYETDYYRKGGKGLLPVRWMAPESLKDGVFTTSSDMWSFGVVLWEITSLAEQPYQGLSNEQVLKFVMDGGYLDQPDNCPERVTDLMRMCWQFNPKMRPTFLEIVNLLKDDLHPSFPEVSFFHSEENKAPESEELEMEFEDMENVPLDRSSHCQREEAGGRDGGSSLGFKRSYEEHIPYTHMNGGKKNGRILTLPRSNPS

Broadly, the IC50 is the concentration that gives 50% inhibition. Take `COc1cc(N2CCN(C3CCN(CCS(C)(=O)=O)CC3)CC2)ccc1Nc1nccc(-c2c(-c3cccc(C(=O)Nc4c(F)cccc4F)c3)nc3ccccn23)n1` [Example 89, N-(2,6-difluorophenyl)-3-[3-(2-{[2-(methyloxy)-4-(4-{1-[2-(methylsulfonyl)ethyl]-4-piperidinyl}-1-piperazinyl)phenyl]amino}-4-pyrimidinyl)imidazo[1,2-a]pyridin-2-yl]benzamide]: the concentration for half-maximal inhibition (IC50) with COLO205 (colon) was less than 250 nM; in test [1] it was less than 100 nM; in test [2], less than 100 nM.
As for `COc1cc(N2CCC(N3CCN(CCF)CC3)CC2)c(Cl)cc1Nc1nccc(-c2c(-c3cccc(C(=O)Nc4c(F)cccc4F)c3)nc3ccccn23)n1` [Example 112, 3-[3-(2-{[5-chloro-4-{4-[4-(2-fluoroethyl)-1-piperazinyl]-1-piperidinyl}-2-(methyloxy)phenyl]amino}-4-pyrimidinyl)imidazo[1,2-a]pyridin-2-yl]-N-(2,6-difluorophenyl)benzamide], the 50% inhibitory concentration (IC50) in test [1] and in test [2] was less than 100 nM each time.
Turning to `CCc1cc(Nc2nccc(-c3c(-c4ccc(OC)c(C(=O)Nc5c(F)cccc5F)c4)nc4ccccn34)n2)c(OC)cc1N1CCN(CCS(C)(=O)=O)CC1` [Example 187, N-(2,6-difluorophenyl)-5-(3-{2-[(5-ethyl-2-(methyloxy)-4-{4-[2-(methylsulfonyl)ethyl]-1-piperazinyl}phenyl)amino]-4-pyrimidinyl}imidazo[1,2-a]pyridin-2-yl)-2-(methyloxy)benzamide], the IC50 in test [1] and in test [2] was less than 100 nM each time.
Regarding `COc1cc(N2CCC(N3CC[C@@H](F)C3)CC2)ccc1Nc1nccc(-c2c(-c3cccc(C(=O)Nc4c(F)cccc4F)c3)nc3ccccn23)n1` [Example 76, N-(2,6-difluorophenyl)-3-[3-(2-{[4-{4-[(3R)-3-fluoro-1-pyrrolidinyl]-1-piperidinyl}-2-(methyloxy)phenyl]amino}-4-pyrimidinyl)imidazo[1,2-a]pyridin-2-yl]benzamide], the half-inhibitory concentration (IC50) was 250 to 1000 nM with COLO205 (colon) and less than 100 nM in test [1].
For `Cc1c(CN2CCN(C)CC2)cccc1Nc1nccc(-c2c(-c3cccc(C(=O)Nc4c(F)cccc4F)c3)nc3ccccn23)n1` [Example 24], the values for the IC50 (in the test on COLO205 (colon); in test [1]) were 250 to 1000 nM and less than 100 nM, respectively.
With `COc1cc(N2CCC(N3CC[C@H](F)C3)CC2)ccc1Nc1nccc(-c2c(-c3cccc(C(=O)Nc4c(F)cccc4F)c3)nc3ccccn23)n1` [Example 77, N-(2,6-difluorophenyl)-3-[3-(2-{[4-{4-[(3S)-3-fluoro-1-pyrrolidinyl]-1-piperidinyl}-2-(methyloxy)phenyl]amino}-4-pyrimidinyl)imidazo[1,2-a]pyridin-2-yl]benzamide], the IC50 was 250 to 1000 nM in the test with COLO205 (colon) and less than 100 nM in test [1].
For `COc1cc(N2CCN(C(C)C)CC2)ccc1Nc1nccc(-c2c(-c3cccc(C(=O)Nc4c(F)cccc4F)c3)nc3ccccn23)n1` [Example 175, N-(2,6-difluorophenyl)-3-[3-(2-{[4-[4-(1-methylethyl)-1-piperazinyl]-2-(methyloxy)phenyl]amino}-4-pyrimidinyl)imidazo[1,2-a]pyridin-2-yl]benzamide] the same measures were 250 to 1000 nM and less than 100 nM.
Regarding `Cc1cc(OC2CCN(C)CC2)ccc1Nc1nccc(-c2c(-c3cccc(C(=O)Nc4c(F)cccc4F)c3)nc3ccccn23)n1` [Example 7, N-(2,6-difluorophenyl)-3-{3-[2-({2-methyl-4-[(1-methyl-4-piperidinyl)oxy]phenyl}amino)-4-pyrimidinyl]imidazo[1,2-a]pyridin-2-yl}benzamide], the values for the IC50 in test [1] and in test [2] were less than 100 nM and more than 500 nM, respectively.
As for `COc1cc(CCN2CCCCC2)c(F)cc1Nc1nccc(-c2c(-c3cccc(C(=O)Nc4c(F)cccc4F)c3)nc3ccccn23)n1` [Example 128, N-(2,6-difluorophenyl)-3-{3-[2-({5-fluoro-2-(methyloxy)-4-[2-(1-piperidinyl)ethyl]phenyl}-amino)-4-pyrimidinyl]imidazo[1,2-a]pyridin-2-yl}benzamide], the IC50 in the test with COLO205 (colon) lay in the range of 250 to 1000 nM; in test [1], 100 to 500 nM.
In the case of `COc1cc(N2CCC(N3CCCCC3)CC2)c(C)cc1Nc1nccc(-c2c(-c3cccc(C(=O)Nc4c(F)cccc4F)c3)nc3ccccn23)n1` [Example 108, 3-[3-(2-{[4-(1,4′-bipiperidin-1′-yl)-5-methyl-2-(methyloxy)phenyl]amino]-4-pyrimidinyl)imidazo[1,2-a]pyridin-2-yl]-N-(2,6-difluorophenyl)benzamide], the IC50 in test [1] and in test [2] was less than 100 nM throughout.
For `Cc1cc(OC2CCNCC2)ccc1Nc1nccc(-c2c(-c3cccc(C(=O)Nc4c(F)cccc4F)c3)nc3ccccn23)n1` [Example 6, N-(2,6-difluorophenyl)-3-[3-(2-{[2-methyl-4-(4-piperidinyloxy)phenyl]amino}-4-pyrimidinyl)imidazo[1,2-a]pyridin-2-yl]benzamide], the IC50 in test [1] was 100 to 500 nM; in test [2] it was more than 500 nM.
With `COc1cc(N2CCC(N3CCOCC3)CC2)ccc1Nc1nccc(-c2c(-c3cccc(C(=O)Nc4c(F)cccc4F)c3)nc3ccccn23)n1` [Example 38, N-(2,6-difluorophenyl)-3-{3-[2-({2-(methyloxy)-4-[4-(4-morpholinyl)-1-piperidinyl]phenyl}amino)-4-pyrimidinyl]imidazo[1,2-a]pyridin-2-yl}benzamide], the IC50 with COLO205 (colon) was 250 to 1000 nM; in test [1] it was less than 100 nM.
For `COc1cc(N2CCOCC2)ccc1Nc1nccc(-c2c(-c3cccc(C(=O)Nc4c(F)cccc4F)c3)nc3ccccn23)n1` [Example 71, N-(2,6-difluorophenyl)-3-[3-(2-{[2-(methyloxy)-4-(4-morpholinyl)phenyl]amino}-4-pyrimidinyl)imidazo[1,2-a]pyridin-2-yl]benzamide] the same measures were 250 to 1000 nM and less than 100 nM.
With `COc1cc(-c2nnc(CN(C)C)o2)ccc1Nc1nccc(-c2c(-c3cccc(C(=O)Nc4c(F)cccc4F)c3)nc3ccccn23)n1` [Example 27, N-(2,6-difluorophenyl)-3-[3-(2-{[4-{5-[(dimethylamino)methyl]-1,3,4-oxadiazol-2-yl}-2-(methyloxy)phenyl]amino}-4-pyrimidinyl)imidazo[1,2-a]pyridin-2-yl]benzamide], the 50% inhibitory concentration (IC50) in the test with COLO205 (colon) is more than 1000 nM; in test [2], more than 500 nM.
As for `COc1cc(CCN2CCN(C)CC2)ccc1Nc1nccc(-c2c(-c3ccc(OC)c(C(=O)Nc4c(F)cccc4F)c3)nc3ccccn23)n1` [Example 131, N-(2,6-difluorophenyl)-2-(methyloxy)-5-{3-[2-({2-(methyloxy)-4-[2-(4-methyl-1-piperazinyl)ethyl]phenyl}amino)-4-pyrimidinyl]imidazo[1,2-a]pyridin-2-yl}benzamide], the IC50 was less than 250 nM in the test on COLO205 (colon) and less than 100 nM in test [1].
For `COc1ccn2c(-c3ccnc(Nc4cccc(OCCN(C)C)c4)n3)c(-c3ccc(OC)c(C(=O)Nc4c(F)cccc4F)c3)nc2c1` [Example 3, N-(2,6-difluorophenyl)-5-[3-{2-[(3-{[2-(dimethylamino)ethyl]oxy}phenyl)amino]-4-pyrimidinyl}-7-(methyloxy)imidazo[1,2-a]pyridin-2-yl]-2-(methyloxy)benzamide] the same measures were 250 to 1000 nM and 100 to 500 nM.
For `COc1cc(CCN2CCOCC2)c(F)cc1Nc1nccc(-c2c(-c3ccc(OC)c(C(=O)Nc4c(F)cccc4F)c3)nc3ccccn23)n1` [Example 130, N-(2,6-difluorophenyl)-5-{3-[2-({5-fluoro-2-(methyloxy)-4-[2-(4-morpholinyl)ethyl]phenyl}-amino)-4-pyrimidinyl]imidazo[1,2-a]pyridin-2-yl}-2-(methyloxy)benzamide], in that order: 250 to 1000 nM and 100 to 500 nM.
As to `Cc1cc(OC2CCN(CCS(C)(=O)=O)CC2)ccc1Nc1nccc(-c2c(-c3cccc(C(=O)Nc4c(F)cccc4F)c3)nc3ccccn23)n1` [Example 8, N-(2,6-difluorophenyl)-3-[3-(2-{[2-methyl-4-({1-[2-(methylsulfonyl)ethyl]-4-piperidinyl}oxy)phenyl]amino}-4-pyrimidinyl)imidazo[1,2-a]pyridin-2-yl]benzamide], the IC50 is less than 100 nM in test [1] and 100 to 500 nM in test [2].
As for `COc1cc(N2CCC(N(C)C)CC2)ccc1Nc1nccc(-c2c(-c3cccc(C(=O)Nc4c(F)cccc4F)c3)nc3ccccn23)n1` [Example 74, N-(2,6-difluorophenyl)-3-[3-(2-{[4-[4-(dimethylamino)-1-piperidinyl]-2-(methyloxy)phenyl]amino}-4-pyrimidinyl)imidazo[1,2-a]pyridin-2-yl]benzamide], the IC50 is less than 250 nM with COLO205 (colon) and less than 100 nM in test [1].
